Source: publication PMC7853623, “Dose- and time-dependent tolerability and efficacy of organo-osmium complex FY26 and its tissue pharmacokinetics in hepatocarcinoma-bearing mice” (Metallomics: Integrated Biometal Science, 2020)

Assays:
[1] = Tolerability (survival, body weight) in Hepa1–6-bearing C57Bl/6 mice (Experiments 3 and 4); assay type: in vivo
Description: Male CD1-Foxn1^nu or C57Bl/6 (B6) mice aged 5–10 weeks (Janvier, Le Genest St Isle, France) were housed in groups of three to four mice per cage in temperature-controlled (23 ± 1°C), ventilated (100 ± 10 l/min), and light-tight chronobiological animal facilities (Eurobioconcept, Bonneuil s/Marne, France). They were synchronized with an alternation of 12 h of light (L) and 12 h of darkness (D) (LD12:12), with light starting at 07:00, and had ad libitum access to food and water throughout all the experiments. In line with convention, onset of light and that of darkness are referred to as Zeitgeber time 0 (ZT0) and ZT12, respectively. After one or more weeks on this regimen and on the day prior to tumour inoculation, both flanks of each B6 mouse were shaved using clippers.
The mice, aged 8–10 weeks, were anesthetized under isoflurane and Hepa1–6-Per2-luc cells were injected subcutaneously in both postero-lateral flanks of each mouse. Mice were then inspected and weighed daily until experiment completion. Tumour sites were inspected daily until tumours became palpable and amenable to daily measurements of perpendicular diameters using callipers. Measurements were always taken at the same circadian time.
Mean daily tumour weight per mouse was calculated as the average volume of the right and left flank tumours according to (L × W^2)/2, where L is the larger and W the smaller perpendicular diameter, and 1 cm^3 corresponds to 1 g. Mice with an estimated tumour weight exceeding 10% of their body weight or those in poor general condition or loosing >15% of their starting body weight were euthanized, in compliance with our Home Office Project Licence specifications approved by the Animals in Science Committee and Animal Welfare and Ethical Review Body.
Experiment 3 aimed at assessing the efficacy and tolerability of the more soluble formulation of FY26⋅Cl in Hepa1–6-bearing C57Bl/6 mice. The mice were randomized to receive vehicle or FY26⋅Cl, at a cumulative dose of 60 mg/kg. Treated mice received ip injections of 20 mg/kg of FY26⋅Cl at ZT6 12, 14, and 17 days after tumour inoculation. Control mice received ip vehicle on the same days.
Experiment 4 aimed at confirming efficacy and optimizing timing and scheduling of the same cumulative dose of 60 mg/kg of FY26⋅Cl. Mice were randomized to receive either vehicle or FY26⋅Cl as four injections of 15 mg/kg at ZT6 or ZT18 on days 11, 14, 17, and 21.
For Experiments 1 and 2, FY26⋅PF6 was diluted in the vehicle, composed of 1% Tween 80 (Sigma-Aldrich, Gillingham, UK), 5% DMSO (Corning, New York, USA) and 94% of 0.9% saline (Prep room, Life Sciences, University of Warwick) under laminar flow. FY26⋅PF6 concentration was confirmed with ICP-MS. For Experiments 3–5, using FY26⋅Cl, a stock solution of 50 mg/ml FY26⋅Cl was prepared in 0.9% saline on the day of injection and diluted as required; the vehicle consisted of 0.9% saline.
Body weight data were expressed as % body weight measured on the first treatment day. Tumour weights for individually treated mice were expressed as % of the median control values, in order to determine % inhibition. Mean and standard error or median and interquartiles were computed for the different treatment groups and experimental conditions, i.e. drug timing and day of assessment. Groups were compared using parametric or non-parametric ANOVAs, respectively.

[2] = test system: A2780 ovarian cancer cells; assay: In vitro growth inhibition assay (SRB), A2780; assay type: cell-based; conditions: A2780, 24 h exposure, 72 h recovery
Description: Dulbecco's modified Eagle's medium (DMEM) cell culture media, penicillin/streptomycin, foetal bovine serum, L-glutamine, phosphate-buffered saline (PBS) solution, and trypsin/EDTA were all purchased from Thermo Fisher (Loughborough, UK). DMEM was supplemented with 10% foetal bovine serum, 1% penicillin/streptomycin, and 2 mM L-glutamine. Cancer cell lines (A2780 and A549) were purchased from the European Collection of Cell Cultures (Salisbury, UK). Cell cultures were grown in T-75 or T-175 culture flasks as adherent monolayers. The cells were passaged two to three times per week whenever confluence reached 80–90%, using 0.25% trypsin/EDTA. Cell cultures were stored in an incubator at 37°C with a 5% CO2 humidified atmosphere.
Five thousand A2780 or A549 cells were seeded per well in 96-well plates. The cells were pre-incubated in drug-free media at 37°C for 48 h before adding a range of concentrations (0.01–100 µM) of the complexes to be tested. Typically, the complex was dissolved in dimethyl sulfoxide (DMSO) at 2 mM concentration, and then diluted with cell culture medium to give a 100 µM stock solution with 5% (v/v) DMSO. […] Absorbance measurements of the solubilized dye (Thermo Scientific Multiskan FC with SkanIt software 4.1 for Windows using a 470 nm filter) allowed the determination of viable treated cells compared to untreated controls. […]

## CN(C)c1ccc(N=Nc2ccccn2)cc1.Cc1ccc(C(C)C)cc1.[Cl-].[I-].[Os+2] [FY26⋅Cl]
[1]; Experiment 4, 15 mg/kg ip × 4, ZT6 and ZT18
  treated mice alive at completion: 45%
[1]; after a cumulative dose of 60 mg/kg
  loss of body weight before treatment: ~10% (±3.2%)
[2]
  difference in anticancer (antiproliferative) activity between X = Cl and X = PF6: lack of any statistically significant difference
